# Measured values published in US20230203098A1, “HUMAN TRANSFERRIN RECEPTOR BINDING PEPTIDE” (priority 2020, published 2023).
# Read-outs that look alike come from different tables or passages of the source. Where a SMILES comes first, the peptide text is derived from it. Bridges are numbered along the chain shown (N, C = ends). [ ]: non-standard residue; d: D form. Trp(1-CH2COOH) = N[C@@H](Cc1cn(CC(=O)O)c2ccccc12)C(=O)O; PEG12 = NCCOCCOCCOCCOCCOCCOCCOCCOCCOCCOCCOCCOCCC(=O)O; NMePhe(3-Cl) = CN[C@@H](Cc1cccc(Cl)c1)C(=O)O; NMeW = CN[C@@H](Cc1c[nH]c2ccccc12)C(=O)O; Phe(3-OMe) = COc1cccc(C[C@H](N)C(=O)O)c1; NMeY = CN[C@@H](Cc1ccc(O)cc1)C(=O)O; NMeF = CN[C@@H](Cc1ccccc1)C(=O)O; PEG4 = NCCOCCOCCOCCOCCC(=O)O; Aib = CC(C)(N)C(=O)O
# Biological target: transferrin receptor (hTfR) (Homo sapiens, UniProt P02786)
# Sequence (P02786 whole entry): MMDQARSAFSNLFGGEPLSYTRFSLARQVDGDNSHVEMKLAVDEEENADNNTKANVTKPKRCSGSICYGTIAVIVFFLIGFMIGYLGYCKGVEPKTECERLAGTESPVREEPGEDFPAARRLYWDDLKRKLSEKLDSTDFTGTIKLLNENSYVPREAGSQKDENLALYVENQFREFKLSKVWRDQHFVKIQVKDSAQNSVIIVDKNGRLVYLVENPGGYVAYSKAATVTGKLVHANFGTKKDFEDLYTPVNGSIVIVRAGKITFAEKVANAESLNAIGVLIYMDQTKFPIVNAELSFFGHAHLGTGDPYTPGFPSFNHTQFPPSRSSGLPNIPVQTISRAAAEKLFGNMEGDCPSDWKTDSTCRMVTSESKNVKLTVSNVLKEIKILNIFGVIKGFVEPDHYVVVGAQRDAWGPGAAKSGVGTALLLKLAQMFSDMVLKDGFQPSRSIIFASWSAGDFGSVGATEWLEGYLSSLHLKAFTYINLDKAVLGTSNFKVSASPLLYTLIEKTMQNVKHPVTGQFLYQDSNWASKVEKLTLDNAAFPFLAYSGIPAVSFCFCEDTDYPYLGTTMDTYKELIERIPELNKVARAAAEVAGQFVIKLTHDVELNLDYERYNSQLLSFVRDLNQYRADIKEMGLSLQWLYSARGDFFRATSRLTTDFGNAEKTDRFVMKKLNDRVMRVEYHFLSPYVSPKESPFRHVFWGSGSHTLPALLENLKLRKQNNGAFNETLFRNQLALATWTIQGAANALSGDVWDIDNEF
# Assay: Intermolecular interaction evaluation test between transferrin receptor (hTfR) and peptide by surface plasmon resonance (SPR)
# Type: binding
# Procedure, shortened: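 Receptor was Ni-captured and EDC/NHS-fixed on an NTA chip; running buffer HEPES pH 8.0 with NaCl, Tween 20, BSA and 1.0% DMSO.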
# [1] = binding to hTfR by SPR, Table 2 peptides, read-out: KD value (SPR) class
# [2] = surface plasmon resonance, hTfR, read-out: KD value for hTfR by SPR (class symbol)
# [3] = surface plasmon resonance, peptide vs hTfR, read-out: KD value, hTfR binding by SPR (class symbol)
smiles,measurement,setting,value
CC[C@H](C)[C@@H]1NC(=O)[C@H](Cc2ccc(O)cc2)NC(=O)[C@H](Cc2ccc(O)cc2)NC(=O)[C@H](CC(N)=O)NC(=O)[C@H](Cc2c[nH]c3ccccc23)NC(=O)[C@H](C(C)C)NC(=O)[C@H](Cc2ccccc2)NC(=O)[C@H](C(C)C)NC(=O)[C@H](C)NC(=O)CSC[C@@H](C(=O)NCCOCCOCCOCCOCCC(=O)N[C@@H](CNC(=O)c2ccc(-c3c4ccc(=O)cc-4oc4cc(O)ccc34)c(C(=O)O)c2)C(N)=O)NC(=O)[C@H](Cc2ccc(O)cc2)N(C)C(=O)[C@H](Cc2ccc(O)cc2)NC(=O)[C@H](CCCNC(=N)N)NC(=O)[C@H](CCCNC(=N)N)N(C)C(=O)[C@H]([C@@H](C)CC)NC1=O [compound 164],Kd,"SPR, linker and payload (FITC, VivoTag) conjugates, read-out: KD",0.001 to 0.1 µM
CC[C@H](C)[C@@H]1NC(=O)[C@H](Cc2ccc(O)cc2)NC(=O)[C@H](Cc2ccc(O)cc2)NC(=O)[C@H](CC(N)=O)NC(=O)[C@H](Cc2c[nH]c3ccccc23)NC(=O)[C@H](C(C)C)NC(=O)[C@H](Cc2ccccc2)N(C)C(=O)[C@H](C(C)C)NC(=O)[C@H](C)NC(=O)CSC[C@@H](C(=O)NCC(=O)N[C@H](CCC(=O)O)C(=O)N[C@H](CCC(=O)O)C(=O)NCC(=O)N[C@@H](CO)C(=O)N[C@@H](CO)C(=O)N[C@@H](CSCC(=O)NC)C(N)=O)NC(=O)[C@H](Cc2ccc(O)cc2)N(C)C(=O)[C@H](Cc2ccc(O)cc2)NC(=O)[C@H](CCCNC(=N)N)NC(=O)[C@H](CCCNC(=N)N)NC(=O)[C@H]([C@@H](C)CC)NC1=O [compound 425],Kd,"surface plasmon resonance, peptide vs hTfR, read-out: KD value for hTfR by SPR (class symbol)",0.001 to 0.1 µM
CC[C@H](C)[C@@H]1NC(=O)[C@H](Cc2ccc(O)cc2)NC(=O)[C@H](Cc2ccc(O)cc2)NC(=O)[C@H](CC(N)=O)NC(=O)[C@H](Cc2cn(CC(=O)O)c3ccccc23)NC(=O)[C@H](C(C)C)NC(=O)[C@H](Cc2ccccc2)N(C)C(=O)[C@H](C(C)C)NC(=O)[C@H](C)NC(=O)CSC[C@@H](C(=O)N[C@H](CCC(=O)O)C(N)=O)NC(=O)[C@H](Cc2ccc(O)cc2)N(C)C(=O)[C@H](Cc2ccc(O)cc2)NC(=O)[C@@H](CCCNC(=N)N)NC(=O)[C@H](CCCNC(=N)N)NC(=O)[C@H](CCC(=O)O)NC1=O [compound 473] ({CH2CO}-AV[NMeF]V[Trp(1-CH2COOH)]NYYIER[dR]Y[NMeY]C[dE]-NH2; thioether N-15),Kd,"SPR, hTfR, class symbols A-D, read-out: KD",0.1 to 1 µM
CC[C@H](C)[C@@H]1NC(=O)[C@H](C2CCCCC2)NC(=O)[C@H](Cc2ccc(O)cc2)NC(=O)[C@H](Cc2ccc(O)cc2)NC(=O)[C@H](CC(N)=O)NC(=O)[C@H](Cc2c[nH]c3ccccc23)NC(=O)[C@H](C(C)C)NC(=O)[C@H](Cc2ccccc2)N(C)C(=O)[C@H](C(C)C)NC(=O)[C@H](C)NC(=O)CSC[C@@H](C(N)=O)NC(=O)[C@H](Cc2ccc(O)cc2)N(C)C(=O)[C@H](Cc2ccc(O)cc2)NC(=O)[C@H](CCCNC(=N)N)NC(=O)[C@H](CCCNC(=N)N)NC1=O [compound 282],Kd,[1],0.001 to 0.1 µM
CC[C@H](C)[C@@H]1NC(=O)[C@H](Cc2ccc(OC)cc2)NC(=O)[C@H](Cc2ccc(O)cc2)NC(=O)[C@H](CC(N)=O)NC(=O)[C@H](Cc2c[nH]c3ccccc23)N(C)C(=O)[C@H](C(C)C)NC(=O)[C@H](Cc2cccc(Cl)c2)N(C)C(=O)[C@H](C(C)C)NC(=O)[C@H](C)NC(=O)CSC[C@@H](C(N)=O)NC(=O)[C@H](Cc2ccc(O)cc2)N(C)C(=O)[C@H](Cc2ccccc2)NC(=O)[C@@H](CCCNC(=N)N)NC(=O)C2(CCN(C)CC2)NC(=O)[C@H]([C@@H](C)CC)NC1=O [compound 364],Kd,[2],0.001 to 0.1 µM
CC[C@H](C)[C@@H]1NC(=O)[C@H](Cc2ccc(O)cc2)NC(=O)[C@H](Cc2ccc(O)cc2)NC(=O)[C@H](CC(N)=O)NC(=O)[C@H](Cc2c[nH]c3ccccc23)NC(=O)[C@H](C(C)C)NC(=O)[C@H](Cc2ccccc2)NC(=O)[C@H](C(C)C)NC(=O)[C@H](C)NC(=O)CSC[C@@H](C(N)=O)NC(=O)[C@H](Cc2ccc(O)cc2)N(C)C(=O)[C@H](Cc2ccc(O)cc2)NC(=O)[C@H](CCCNC(=N)N)NC(=O)[C@H](C)NC(=O)[C@H]([C@@H](C)CC)NC1=O [compound 253],Kd,[1],0.001 to 0.1 µM
CC[C@H](C)[C@@H]1NC(=O)[C@H](Cc2ccc(OC)cc2)NC(=O)[C@H](Cc2ccc(O)cc2)NC(=O)[C@H](CC(N)=O)NC(=O)[C@H](Cc2c[nH]c3ccccc23)N(C)C(=O)[C@H](C(C)C)NC(=O)[C@H](Cc2cccc(Cl)c2)N(C)C(=O)[C@H](CCC(=O)O)NC(=O)[C@H](C)NC(=O)CSC[C@@H](C(=O)NCC(=O)NCC(=O)NCC(=O)NCC(=O)N[C@@H](CO)C(=O)N[C@@H](CO)C(=O)N[C@@H](CS)C(N)=O)NC(=O)[C@H](Cc2ccc(O)cc2)N(C)C(=O)[C@H](Cc2ccccc2)NC(=O)[C@@H](CCCNC(=N)N)NC(=O)[C@H](CCCNC(=N)N)NC(=O)[C@H]([C@@H](C)CC)NC1=O [compound 234],Kd,,0.001 to 0.1 µM
CC[C@H](C)[C@@H]1NC(=O)[C@H](Cc2ccc(OC)cc2)NC(=O)[C@H](Cc2ccc(O)cc2)NC(=O)[C@H](CC(N)=O)NC(=O)[C@H](Cc2cn(CC(=O)O)c3ccccc23)NC(=O)[C@H](C(C)C)NC(=O)[C@H](Cc2cccc(Cl)c2)N(C)C(=O)[C@H](C(C)C)NC(=O)[C@H](C)NC(=O)CSC[C@@H](C(N)=O)NC(=O)[C@H](Cc2ccc(O)cc2)N(C)C(=O)[C@H](Cc2ccccc2)NC(=O)[C@@H](CCCNC(=N)N)NC(=O)[C@H](CCCNC(=N)N)NC(=O)[C@H]([C@@H](C)CC)NC1=O [compound 306],Kd,[3],0.001 to 0.1 µM
CC[C@H](C)[C@@H]1NC(=O)[C@H](Cc2ccc(O)cc2)NC(=O)[C@H](Cc2ccc(O)cc2)NC(=O)[C@H](CC(N)=O)NC(=O)[C@H](Cc2c[nH]c3ccccc23)NC(=O)[C@H](C(C)C)NC(=O)[C@H](Cc2ccccc2)N(C)C(=O)[C@H](C(C)C)NC(=O)[C@H](C)NC(=O)CSC[C@@H](C(N)=O)NC(=O)[C@H](Cc2ccc(O)cc2)N(C)C(=O)[C@H](Cc2ccc(O)cc2)NC(=O)[C@H](CCCNC(=N)N)NC(=O)[C@H](CCCNC(=N)N)NC(=O)[C@H]([C@@H](C)CC)NC1=O [compound 296],Kd,[3],0.001 to 0.1 µM
CC[C@H](C)[C@@H]1NC(=O)[C@H](Cc2ccc(O)cc2)NC(=O)[C@H](Cc2ccc(O)cc2)NC(=O)[C@H](CC(N)=O)NC(=O)[C@H](Cc2c[nH]c3ccc(Cl)cc23)NC(=O)[C@H](C(C)C)NC(=O)[C@H](Cc2ccc(F)cc2)N(C)C(=O)[C@H](C(C)C)NC(=O)[C@H](C)NC(=O)CSC[C@@H](C(N)=O)NC(=O)[C@H](Cc2ccc(O)cc2)N(C)C(=O)[C@H](Cc2ccccc2)NC(=O)[C@H](CCCCNC(=O)CCOCCOCCOCCOC)NC(=O)[C@H](CCCNC(=N)N)N(C)C(=O)[C@H]([C@@H](C)CC)NC1=O [compound 489],Kd,"SPR, hTfR, class symbols A-D, read-out: KD (column without head, continuation of the table series)",0.1 to 1 µM
CC[C@H](C)[C@@H]1NC(=O)[C@H](Cc2ccc(OC)cc2)NC(=O)[C@H](Cc2ccc(O)cc2)NC(=O)[C@H](CC(N)=O)NC(=O)[C@H](Cc2c[nH]c3ccccc23)N(C)C(=O)[C@H](C(C)C)NC(=O)[C@H](Cc2cccc(Cl)c2)N(C)C(=O)[C@H](C(C)C)NC(=O)[C@H](C)NC(=O)CSC[C@@H](C(=O)NCC(=O)NCC(=O)NCC(=O)NCC(=O)N[C@@H](CO)C(=O)N[C@@H](CO)C(=O)N[C@@H](CS)C(N)=O)NC(=O)[C@H](Cc2ccc(O)cc2)N(C)C(=O)[C@H](Cc2ccccc2)NC(=O)[C@@H](CCCNC(=N)N)NC(=O)[C@H](CCCNC(=N)N)NC(=O)[C@H](CN)NC1=O [compound 343],Kd,,0.001 to 0.1 µM
CC[C@H](C)[C@@H]1NC(=O)[C@H](Cc2ccc(OC)cc2)NC(=O)[C@H](Cc2ccc(O)cc2)NC(=O)[C@H](CC(N)=O)NC(=O)[C@H](Cc2c[nH]c3ccccc23)N(C)C(=O)[C@H](C(C)C)NC(=O)[C@H](Cc2cccc(Cl)c2)N(C)C(=O)[C@H](C(C)C)NC(=O)[C@H](C)NC(=O)CSC[C@@H](C(=O)NCCOCCOCCOCCOCCC(N)=O)NC(=O)[C@H](Cc2ccc(O)cc2)N(C)C(=O)[C@H](Cc2ccccc2)NC(=O)[C@@H](CCCNC(=N)N)NC(=O)[C@H](CCCNC(=N)N)NC(=O)C(C)(C)NC1=O [compound 333] ({CH2CO}-AV[NMePhe(3-Cl)]V[NMeW]NYY(Me)I[Aib]R[dR]F[NMeY]C[PEG4]-NH2; thioether N-15),Kd,[3],0.001 to 0.1 µM
CC[C@H](C)[C@@H]1NC(=O)[C@H](Cc2ccc(O)cc2)NC(=O)[C@H](Cc2ccc(O)cc2)NC(=O)[C@H](CC(N)=O)NC(=O)[C@H](Cc2cccc(OC)c2)NC(=O)[C@H](C(C)C)NC(=O)[C@H](Cc2ccccc2)N(C)C(=O)[C@H](C(C)C)NC(=O)[C@H](C)NC(=O)CSC[C@@H](C(=O)NCCOCCOCCOCCOCCOCCOCCOCCOCCOCCOCCOCCOCCC(N)=O)NC(=O)[C@H](Cc2ccc(O)cc2)N(C)C(=O)[C@H](Cc2ccc(O)cc2)NC(=O)[C@H](CCCNC(=N)N)NC(=O)[C@H](CCCNC(=N)N)NC(=O)[C@H]([C@@H](C)CC)NC1=O [compound 113] ({CH2CO}-AV[NMeF]V[Phe(3-OMe)]NYYIIRRY[NMeY]C[PEG12]-NH2; thioether N-15),Kd,"SPR, hTfR No. 894 variants with PEG12c linker (Table 2), read-out: KD",< 0.001 µM
CC[C@H](C)[C@@H]1NC(=O)[C@H](Cc2ccc(OC)cc2)NC(=O)[C@H](Cc2ccc(O)cc2)NC(=O)[C@H](CC(N)=O)NC(=O)[C@H](Cc2c[nH]c3ccccc23)N(C)C(=O)[C@H](C(C)C)NC(=O)[C@H](Cc2cccc(Cl)c2)N(C)C(=O)[C@H](C(C)C)NC(=O)[C@H](C)NC(=O)CSC[C@@H](C(=O)NCCOCCOCCOCCOCCC(N)=O)NC(=O)[C@H](Cc2ccc(O)cc2)N(C)C(=O)[C@H](Cc2ccccc2)NC(=O)[C@@H](CCCNC(=N)N)NC(=O)[C@H](CCCCN)NC(=O)[C@H]([C@@H](C)CC)NC1=O [compound 374] ({CH2CO}-AV[NMePhe(3-Cl)]V[NMeW]NYY(Me)IIK[dR]F[NMeY]C[PEG4]-NH2; thioether N-15),Kd,[2],0.001 to 0.1 µM
